According to US6855730B2, “3-methylidenyl-2-indolinone modulators of protein kinase” (Sugen, Inc., priority 1998, dated 2005):

Molecular target: T1, chimeric receptor containing the EGFR extracellular domain and intracellular HER2 kinase domain (Homo sapiens, UniProt P04626)
T1 construct: fused on or other part: EGFR ectodomain + HER2 intracellular part, ATP-site indolinones: HER2's kinase
Assay: EGF Receptor-HER2 chimeric receptor assay in whole cells (ELISA)
Type: cell-based
Conditions: read-out: HER-2 kinase IC50
Procedure: EGF Receptor-HER2 Chimeric Receptor Assay In Whole Cells.
HER2 kinase activity in whole EGFR-NIH3T3 cells are measured as described below:
• a. […] 05-101 (UBI) (a monoclonal antibody recognizing an EGFR extracellular domain). • c. Anti-phosphotyrosine antibody (anti-Ptyr) (polyclonal) (see, Fendley, et al., supra). • d. Detection antibody: Goat anti-rabbit IgG horseradish peroxidase conjugate, TAGO, Inc., Burlingame, Calif. • e. TBST buffer:
• h. Stock reagents of:
Pre-coat ELISA Plate • 1. […] Coated plates are good for up to 10 days when stored at 4° C. • 2. On day of use, remove coating buffer and replace with 100 μl blocking buffer (5% Carnation Instant Non-Fat Dry Milk in PBS). Incubate the plate, shaking, at room temperature (about 23° C. to 25° C.) for 30 minutes. Just prior to use, remove blocking buffer and wash plate 4 times with TBST buffer.
Seeding Cells • 1. An NIH3T3 cell line overexpressing a chimeric receptor containing the EGFR extracellular domain and intracellular HER2 kinase domain can be used for this assay. • 2. Choose dishes having 80-90% confluence for the experiment. Trypsinize cells and stop reaction by adding 10% fetal bovine serum. Suspend cells in DMEM medium (10% CS DMEM medium) and centrifuge once at 1500 rpm, at room temperature for 5 minutes. • 3. Resuspend cells in seeding medium (DMEM, 0.5% bovine serum), and count the cells using trypan blue. Viability above 90% is acceptable. Seed cells in DMEM medium (0.5% bovine serum) at a density of 10,000 cells per well, 100 μl per well, in a 96 well microtiter plate. Incubate seeded cells in 5% CO2. at 37° C. for about 40 hours.
Assay Procedures • 1. Check seeded cells for contamination using an inverted microscope. Dilute drug stock (10 mg/ml in DMSO) 1:10 in DMEM medium, then transfer 5 μl to a […] well for a final drug dilution of 1:200 and a final DMSO concentration of 1%. Control wells receive DMSO alone. Incubate in 5% CO2 at 37° C. for two hours. • 2. Prepare EGF ligand: dilute stock EGF in DMEM so that upon transfer of 10 μl dilute EGF (1:12 dilution), 100 nM final concentration is attained. • 3. Prepare fresh HNTG* sufficient for 100 μl per well, and place on ice.
• 4. After 120 minutes incubation with drug, add prepared […] ligand to cells, 10 μl per well, to a final concentration of 100 nM. Control wells receive DMEM alone. Incubate with shaking, at room temperature, for 5 minutes. • 5. Remove drug, EGF, and DMEM. Wash cells twice with PBS. Transfer HNTG* to cells, 100 μl per well. Place on ice for 5 minutes. Meanwhile, remove blocking buffer from other ELISA plate and wash with TBST as described above. • 6. With a pipette tip securely fitted to a micropipettor, scrape cells from plate and homogenize cell material by repeatedly aspirating and dispensing the HNTG* lysis buffer. Transfer lysate to a coated, blocked, and washed ELISA plate. Incubate shaking at room temperature for one hour. • 7. Remove lysate and wash 4 times with TBST. Transfer freshly diluted anti-Ptyr antibody to ELISA plate at 100 μl per well. Incubate shaking at room temperature for 30 minutes in the presence of the anti-Ptyr antiserum (1:3000 dilution in TBST). • 8. Remove the anti-Ptyr antibody and wash 4 times with TBST. Transfer the freshly diluted TAGO anti-rabbit IgG antibody to the ELISA plate at 100 μl per well. Incubate shaking at room temperature for 30 minutes (anti-rabbit IgG antibody: 1:3000 dilution in TBST). • 9. Remove TAGO detection antibody and wash 4 times with TBST. Transfer freshly prepared ABTS/H2O2 solution to ELISA plate, 100 μl per well. Incubate shaking at room temperature for 20 minutes. (ABTS/H2O2 solution: 1.0 μl 30% H2O2 in 10 ml ABTS stock). • 10. Stop reaction by adding 50 μl 5N H2SO4 (optional), and determine O.D. at 410 nm. • 11. The maximal phosphotyrosine signal is determined by subtracting the value of the negative controls from the positive controls. […]

T1 sequence (P04626 720-1255 limits assumed, change not shown): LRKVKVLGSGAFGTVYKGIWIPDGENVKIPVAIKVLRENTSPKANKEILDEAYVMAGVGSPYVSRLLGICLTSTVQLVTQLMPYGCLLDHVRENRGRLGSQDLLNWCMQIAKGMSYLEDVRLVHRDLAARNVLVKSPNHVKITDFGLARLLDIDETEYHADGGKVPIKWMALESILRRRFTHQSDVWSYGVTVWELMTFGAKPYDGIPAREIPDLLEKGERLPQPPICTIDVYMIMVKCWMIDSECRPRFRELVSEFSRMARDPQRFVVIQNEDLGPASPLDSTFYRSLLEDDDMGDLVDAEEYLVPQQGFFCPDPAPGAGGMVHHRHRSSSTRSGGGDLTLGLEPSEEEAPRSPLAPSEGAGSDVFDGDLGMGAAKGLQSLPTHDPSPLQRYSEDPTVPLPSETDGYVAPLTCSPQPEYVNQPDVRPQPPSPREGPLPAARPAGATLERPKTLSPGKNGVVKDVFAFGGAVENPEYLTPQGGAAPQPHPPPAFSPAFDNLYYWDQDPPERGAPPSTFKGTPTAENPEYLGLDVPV

Row | SMILES | IC50
1 | COc1cc(C)c(C=C2C(=O)Nc3ccc(Cl)cc32)cc1C(C)C [Example 9, 5-Chloro-3-(5-isopropyl-4-methoxy-2-methylbenzylidene)-1,3-dihydroindol-2-one] | > 100 µM
2 | COc1ccc(/C=C2/C(=O)Nc3ccc(Br)cc32)cc1-c1ccccc1 [Example 13, 5-Bromo-3-(6-methoxybiphenyl-3-ylmethylene)-1,3-dihydroindol-2-one] | > 100 µM
3 | CCOC(=O)c1c(C)[nH]c(/C=C2\C(=O)Nc3cc(-c4ccccc4OC)ccc32)c1CCC(=O)O [Example 110, 4-(2-Carboxyethyl)-5-[6-(2-methoxyphenyl)-2-oxo-1,2-dihydro-indol-3-ylidenemethyl]-2-methyl-1H-pyrrol-3-yl-carboxylic acid ethyl ester] | > 100 µM
4 | COc1ccc(/C=C2/C(=O)Nc3ccccc32)cc1-c1ccsc1 [Example 35, 3-(4-Methoxy-3-thiophen-3-ylbenzylidene)-1,3-dihydroindol-2-one] | 20.7 µM
5 | COc1ccc(/C=C2\C(=O)Nc3cccc(C)c32)cc1C(C)C [Example 38, 3-(3-Isopropyl-4-methoxybenzylidene)-4-methyl-1,3-dihydroindol-2-one] | 32.3 µM
6 | Cc1cccc2c1/C(=C/c1ccc3c(c1)CCO3)C(=O)N2 [Example 69, 3-(2,3-Dihydrobenzofuran-5-ylmethylene)-4-methyl-1,3-dihydroindol-2-one] | > 100 µM
7 | COc1ccccc1-c1ccc2c(c1)NC(=O)/C2=C\c1[nH]c(C)cc1CCC(=O)O [Example 109, 3-{2-[6-(2-Methoxyphenyl)-2-oxo-1,2-dihydroindol-3-ylidenemethyl]-5-methyl-1H-pyrrol-3-yl}-propionic acid] | > 100 µM
8 | COc1ccc(/C=C2\C(=O)Nc3cccc(C)c32)cc1C1CCCC1 [Example 48, 3-(3-Cyclopentyl-4-methoxybenzylidene)-4-methyl-1,3-dihydroindol-2-one] | 65 µM
9 | COc1ccc(/C=C2/C(=O)Nc3ccccc32)cc1C1CCCCC1 [Example 12, 3-(3-Cyclohexyl-4-methoxybenzylidene)-1,3-dihydroindol-2-one] | > 100 µM
10 | COc1ccc(/C=C2/C(=O)Nc3ccc(CCN4CCOCC4)cc32)cc1-c1ccsc1 [Example 26, 3-(4-Methoxy-3-thiophen-3-ylbenzylidene)-5-(2-morpholin-4-yl-ethyl)-1,3-dihydroindol-2-one] | 15.3 µM
11 | CC(=O)Nc1ccc2c(c1)NC(=O)/C2=C\c1ccc2c(c1)CCC(C)(C)O2 [Example 33, N-[3-(2,2-Dimethylchroman-6-ylmethylene)-2-oxo-2,3-dihydro-1H-indol-6-yl]-acetamide] | 20.2 µM
12 | COc1c(C)cc(/C=C2/C(=O)Nc3ccc(Cl)cc32)cc1C [Example 21, 5-Chloro-3-(4-methoxy-3,5-dimethylbenzylidene)-1,3-dihydroindol-2-one] | 11.8 µM
13 | COc1c(C(C)C)cc(/C=C2/C(=O)Nc3ccc(C)cc32)cc1C(C)C [Example 19, 3-(3,5-Diisopropyl-4-methoxybenzylidene)-5-methyl-1,3-dihydroindol-2-one] | 9.2 µM
14 | CC(=O)Nc1ccc2c(c1)NC(=O)/C2=C/c1ccc(OCCN2CCOCC2)c(C(C)(C)C)c1 [Example 55, N-{3-[3-tert-Butyl-4-(2-morpholin-4-ylethoxy)-benzylidene]-2-oxo-2,3-dihydro-1H-indol-6-yl}-acetamide] | 89.3 µM
15 | COc1cc(C)c(C=C2C(=O)Nc3cc(NC(C)=O)ccc32)cc1C(C)C [Example 27, N-[3-(5-Isopropyl-4-methoxy-2-methyl-benzylidene)-2-oxo-2,3-dihydro-1H-indol-6-yl]-acetamide] | 15.8 µM
16 | COc1ccc(/C=C2/C(=O)Nc3ccc(F)cc32)cc1C1CCCCC1 [Example 43, 3-(3-Cyclohexyl-4-methoxybenzylidene)-5-fluoro-1,3-dihydroindol-2-one] | 52.9 µM
17 | CCc1ccc2c(c1)/C(=C\c1cc(C(C)C)c(OC)c(C(C)C)c1)C(=O)N2 [Example 28, 3-(3,5-Diisopropyl-4-methoxbenzylidene)-5-ethyl-1,3-dihydroindol-2-one] | 16.9 µM
18 | COc1c(C(C)C)cc(/C=C2/C(=O)Nc3cc(O)ccc32)cc1C(C)C [Example 4, 3-(3,5-Diisopropyl-4-methoxybenzylidene)-6-hydroxy-1,3-dihydroindol-2-one] | 5.8 µM
19 | CC1(C)CCc2cc(/C=C3/C(=O)Nc4ccc(F)cc43)ccc2O1 [Example 23, 3-(2,2-Dimethylchroman-6-ylmethylene)-5-fluoro-1,3-dihydroindol-2-one] | 33.2 µM
20 | COc1ccc(/C=C2/C(=O)Nc3cc(NC(C)=O)ccc32)cc1-c1ccsc1 [Example 18, N-[3-(4-Methoxy-3-thiophene-3-ylbenzylidene)-2-oxo-2,3-dihydro-1H-indol-6-yl]-acetamide] | 8.4 µM
21 | COc1ccc(/C=C2/C(=O)Nc3ccc(F)cc32)cc1C1CCCC1 [Example 11, 3-(3-Cyclopentyl-4-methoxybenzylidene)-5-fluoro-1,3-dihydroindol-2-one] | 57.3 µM
22 | CC(C)c1cc(/C=C2/C(=O)Nc3ccc(Cl)cc32)cc(C(C)C)c1OCCN1CCOCC1 [Example 24, 5-chloro-3-[3,5-diisopropyl-4-(2-morpholin-4-ylethoxy)-benzylidene]-1,3-dihydroindol-2-one] | 13.6 µM
23 | COc1cc(C)c(/C=C2/C(=O)Nc3ncccc32)cc1C(C)C [Example 45, 3-(5-Isopropyl-4-methoxy-2-methylbenzylidene)-1,3-dihydro-pyrrolo[2,3-b]pyridin-2-one] | 56.9 µM
24 | COc1c(C(C)C)cc(/C=C2\C(=O)Nc3cccc(C)c32)cc1C(C)C [Example 53, 3-(3,5-Diisopropyl-4-methoxybenzylidene)-4-methyl-1,3-dihydroindol-2-one] | 80.7 µM
25 | COc1ccc(/C=C2/C(=O)Nc3ncccc32)cc1C(C)C [Example 70, 3-(3-Isopropyl-4-methoxybenzylidene)-1,3-dihydropyrrolo[2,3-b]pyridine-2-one] | > 100 µM
26 | CNS(=O)(=O)c1ccc2c(c1)C(=Cc1[nH]c3ccccc3c1C)C(=O)N2 (racemic) [Example 154, 3-(3-Methyl-1H-indol-2-ylmethylene)-2-oxo-2,3-dihydro-1H-indole-5-sulfonic acid methylamide] | > 100 µM
27 | COc1c(C(C)C)cc(/C=C2/C(=O)Nc3ccc(N)cc32)cc1C(C)C [Example 20, 5-Amino-3-(3,5-diisopropyl-4-methoxy-benzylidene)-1,3-dihydroindol-2-one] | 38.6 µM
28 | COc1cc(/C=C2/C(=O)Nc3ccccc32)c(-c2cccs2)cc1OC [Example 39, 3-(4,5-Dimethoxy-2-thiophen-2-ylbenzylidene)-1,3-dihydroindol-2-one] | 33.7 µM
29 | COc1cc(C)c(C=C2C(=O)Nc3ccccc32)cc1C(C)C [Example 8, 3-(5-Isopropyl-4-methoxy-2-methylbenzylidene)-1,3-dihydroindol-2-one] | 8.36 µM
30 | CC(=O)Nc1ccc2c(c1)NC(=O)/C2=C/c1ccc(OCCN2CCOCC2)c(-c2ccsc2)c1 [Example 50, N-{3-[4-(2-Morpholin-4-ylethoxy)-3-thiophen-3-ylbenzylidene]-2-oxo-2,3-dihydro-1H-indol-6-yl}-acetamide] | 67.6 µM
